Read-outs that look alike come from different tables or passages of the source.
System: phenyl-p-benzoquinone induced writhing in mice
Test: phenyl-p-benzoquinone induced writhing test in mice (antiphenylquinone writhing), oral, with isobologram analysis
Type: in vivo, mouse (male CF1)
Conditions: 20 min; for ED50: read-out: ED50 dose; for % mice blocked: oral
Procedure: The phenyl-p-benzoquinone induced writhing test in mice [H. Blumberg et al., Proc. Soc. […] The method simply consists of reading the % ED50 DOSE for each dose ratio on the best fit regression analysis curve from the mouse isobologram, multiplying each component by its effective species dose, and then forming the ratio of the amount of nalbuphine to zomepirac. […] [E. W. Pelikan, The Pharmacologist, 1, 73 (1959).]
All solutions are prepared fresh daily.
Each mouse is used only once, then discarded.
In order to study the interaction between nalbuphine and zomepirac, 6 precise dosage ratios of nalbuphine hydrochloride and zomepirac are selected.
The nature of the analgetic interaction (addition, synergism, or antagonism) is determined by graphing the results in a Loewe isobologram [S. Loewe, Pharm. Rev. 9:237-242, (1957)]. The isobologram is a quantitative method for measuring interactions between drugs where dose-effect relationships are depicted in a multi-dimensional array with lines connecting dose pairs that are equieffective in relationship to a common pharmacological endpoint. In this instance, the antiphenylquinone writhing test is used to estimate a common level of analgesic activity (ED50 dose) for the two component drugs separately and for each fixed dose-ratio combination.
If such substitution increases the response, the mixing together of the compounds is said to potentiate their effects and synergism exists.
Consider ED50 doses of mixtures of X units of compound B with Y units of compound A, whose ED50 doses are β and α, respectively. Given the hypothesis of additivity, all doses of mixtures satisfying the straight line relation,
will be ED50 doses. To test the hypothesis of additivity, ED50 doses of mixtures are estimated through probit analysis of data from experiments run at various ratios of A to B. Linear and curvilinear regression models are fitted to the data to estimate the amounts of A in respective ED50 doses, given the amount of B, (or, conversely, the amount of B, given A).
The regression is fitted to the data by the method of least squares. Residual squared deviations about the line of best fit are minimized in directions along lines from the origin through respective data points on the isobologram, these lines making angles with X-axis, tan^-1 (Y/X). This is accomplished by a transformation prior to the […] analysis. Its inverse is applied to transform the coordinates of the regression curve back to the X,Y coordinates of the isobologram.
A statistically significant regression will refute the hypothesis.
The method of least squares utilizes jointly the information contained in all of the separate data points. Statistical significance of the curvilinearity of the regression model establishes the existence of synergism (or antagonism) of the compounds in the biological system studied. The parameters in the model describe its intensity over the range of mixture ratios, from 0 to 1, the nature of which is seen readily when the regression is plotted on the isobologram.

SMILES	ED50 (drug alone, twenty minutes post oral dosing, mouse antiphenylquinone writhing test) [mg/kg]	% mice blocked (nalbuphine HCl 0 + zomepirac sodium 0.29 mg/kg) [%]	% mice blocked (nalbuphine HCl 0 + zomepirac sodium 0.58 mg/kg) [%]	% mice blocked (nalbuphine HCl 0 + zomepirac sodium 1.16 mg/kg) [%]	% mice blocked (nalbuphine HCl 0 + zomepirac sodium 2.32 mg/kg) [%]	ED50 (Mus musculus, po) [mg/kg]	% mice blocked (nalbuphine HCl 2.75 + zomepirac sodium 0 mg/kg) [%]	% mice blocked (nalbuphine HCl 5.5 + zomepirac sodium 0 mg/kg) [%]	% mice blocked (nalbuphine HCl 11 + zomepirac sodium 0 mg/kg) [%]	% mice blocked (nalbuphine HCl 22 + zomepirac sodium 0 mg/kg) [%]	% mice blocked (nalbuphine HCl 44 + zomepirac sodium 0 mg/kg) [%]
Cc1cc(CC(=O)O)n(C)c1C(=O)c1ccc(Cl)cc1 [Zomepirac Sodium, 5-(4-chlorobenzoyl)-1,4-dimethyl-1H-pyrrole-2-acetic acid]	1.66	13.3	20.0	31.1	75.6	–	–	–	–	–	–
Oc1ccc2c3c1O[C@H]1[C@@H](O)CC[C@@]4(O)[C@@H](C2)N(CC2CCC2)CC[C@]314 [Nalbuphine, (-)-17-(cyclobutylmethyl)-4,5α-epoxymorphinan-3,6α,14-triol]	–	–	–	–	–	12	15.6	24.4	62.2	68.9	84.4
